Results: ChEMBL document CHEMBL1275606, “Novel chromosome-encoded CTX-M-78 beta-lactamase from a Kluyvera georgiana clinical isolate as a putative origin of CTX-M-25 subgroup” (2010)
≈ marks a conversion by molar mass, not a printed value.

Tests used:
Type in all cases: functional
Kluyvera georgiana [1] = assay: Antimicrobial activity against Kluyvera georgiana 14751 expressing beta-lactamase CTX-M-78 obtained from bloodstream of patient by […]
Escherichia coli [2] = assay: Antimicrobial activity against Escherichia coli TOP10F' transformant harboring beta-lactamase CTX-M-78 by […]
Kluyvera georgiana [3] = assay: Antimicrobial activity against Kluyvera georgiana 14751 expressing beta-lactamase CTX-M-78 obtained from bloodstream of patient by […] in presence of beta-lactamase inhibitor clavulanic acid
Escherichia coli [4] = assay: Antimicrobial activity against Escherichia coli TOP10F' by […]

Compound	MIC (Kluyvera georgiana [1]) [µg/mL]	MIC (Escherichia coli [2]) [µg/mL]	MIC (Kluyvera georgiana [3]) [µg/mL]	MIC (Escherichia coli [4]) [µg/mL]
CC1(C)S[C@@H]2[C@H](NC(=O)[C@H](N)c3ccccc3)C(=O)N2[C@H]1C(=O)O [AMPICILLIN]	256 (≈ 733 µM)	256 (≈ 733 µM)	4	
C[C@H]1[C@H](NC(=O)/C(=N\OC(C)(C)C(=O)O)c2csc(N)n2)C(=O)N1S(=O)(=O)O [AZTREONAM]	≤ 0.016	0.5 (≈ 1.15 µM)		
CO/N=C(\C(=O)N[C@@H]1C(=O)N2C(C(=O)[O-])=C(C[N+]3(C)CCCC3)CS[C@H]12)c1csc(N)n1 [CEFEPIME]	0.032 (≈ 0.0666 µM)	0.5 (≈ 1.04 µM)		0.016 (≈ 0.0333 µM)
CO/N=C(\C(=O)N[C@@H]1C(=O)N2C(C(=O)O)=C(COC(C)=O)CS[C@H]12)c1csc(N)n1 [CEFOTAXIME]	0.032 (≈ 0.0703 µM)	1 (≈ 2.2 µM)		≤ 0.016
CO[C@@]1(NC(=O)Cc2cccs2)C(=O)N2C(C(=O)O)=C(COC(N)=O)CS[C@@H]21 [CEFOXITIN]	1 (≈ 2.34 µM)	2 (≈ 4.68 µM)		2 (≈ 4.68 µM)
CC(C)(O/N=C(\C(=O)N[C@@H]1C(=O)N2C(C(=O)[O-])=C(C[n+]3ccccc3)CS[C@H]12)c1csc(N)n1)C(=O)O [CEFTAZIDIME]	0.063 (≈ 0.115 µM)	0.25 (≈ 0.457 µM)		0.125 (≈ 0.229 µM)
CC(=O)OCC1=C(C(=O)O)N2C(=O)[C@@H](NC(=O)Cc3cccs3)[C@H]2SC1 [CEPHALOTHIN]	8 (≈ 20.2 µM)	256 (≈ 646 µM)		2 (≈ 5.04 µM)
NC[C@H]1O[C@H](O[C@H]2[C@H](O)[C@@H](O[C@H]3O[C@H](CO)[C@@H](O)[C@H](N)[C@H]3O)[C@H](N)C[C@@H]2N)[C@H](O)[C@@H](O)[C@@H]1O [KANAMYCIN]	16 (≈ 33 µM)	256 (≈ 528 µM)		1 (≈ 2.06 µM)
CCn1cc(C(=O)O)c(=O)c2ccc(C)nc21 [NALIDIXIC ACID]	128 (≈ 551 µM)	2 (≈ 8.61 µM)		
CN(C)[C@@H]1C(O)=C(C(N)=O)C(=O)[C@@]2(O)C(O)=C3C(=O)c4c(O)cccc4[C@@](C)(O)[C@H]3C[C@@H]12 [TETRACYCLINE]	≤ 0.5	256 (≈ 576 µM)		
GENTAMICIN	64	< 0.5		
